Measured values taken from patent US20230089867A1, “CYCLIC PENTAMER COMPOUNDS AS PROPROTEIN CONVERTASE SUBTILISIN/KEXIN TYPE 9 (PCSK9) INHIBITORS FOR THE TREATMENT OF METABOLIC DISORDER” (Novartis AG, priority 2018, published 2023).

Molecular target: human PCSK9 (Homo sapiens, UniProt Q8NBP7)
Experiment: PCSK9 ligand binding TR-FRET assay (interference with binding of human PCSK9 to human LDLR)
Details: for Max % inhibition: PCSK9 FRET assay, efficacy (Amax), 100% = 1 uM unlabeled human PCSK9, 0% = DMSO; for IC50: TR-FRET, human PCSK9 Alexa Fluor 647 / human LDLR extracellular domain-Europium Kryptate, read-out: PCSK9 FRET Assay IC50
Outline: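 Threefold compound dilutions were pre-incubated 30 min with PCSK9, after which 4 nM Europium Kryptate-tagged human LDLR ectodomain was added for a further 2 h.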

Sequence of human PCSK9 (Q8NBP7 153-692): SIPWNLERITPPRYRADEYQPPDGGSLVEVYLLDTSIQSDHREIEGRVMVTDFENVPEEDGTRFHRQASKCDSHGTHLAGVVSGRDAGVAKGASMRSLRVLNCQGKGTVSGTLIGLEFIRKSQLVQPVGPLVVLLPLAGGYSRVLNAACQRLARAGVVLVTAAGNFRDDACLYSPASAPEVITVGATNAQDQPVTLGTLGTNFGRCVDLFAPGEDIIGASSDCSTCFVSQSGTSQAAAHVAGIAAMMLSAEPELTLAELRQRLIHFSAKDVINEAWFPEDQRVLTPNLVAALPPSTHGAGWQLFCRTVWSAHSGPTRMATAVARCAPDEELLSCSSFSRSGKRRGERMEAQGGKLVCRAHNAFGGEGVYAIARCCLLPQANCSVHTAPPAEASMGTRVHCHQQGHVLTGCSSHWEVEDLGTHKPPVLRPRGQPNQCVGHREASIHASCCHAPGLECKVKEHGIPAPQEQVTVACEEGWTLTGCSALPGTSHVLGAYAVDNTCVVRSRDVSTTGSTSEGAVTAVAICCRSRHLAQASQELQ
Sequence of human PCSK9 (Q8NBP7 31-152 partner limits assumed): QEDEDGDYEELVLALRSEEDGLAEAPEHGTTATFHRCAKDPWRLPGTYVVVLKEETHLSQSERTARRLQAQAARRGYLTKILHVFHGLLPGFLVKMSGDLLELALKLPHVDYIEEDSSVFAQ

Structure (SMILES) | Max % inhibition [%] | IC50 [nM]
CCc1ccc(CN2C(=O)C[C@@H](Cc3ccccc3)C(=O)N(C)[C@@H](C)CNC(=O)C[C@H](Cc3ccc(Cl)cc3)N(C)C(=O)[C@H](COC)NC(=O)[C@@H]2C)c(Oc2ccc(-c3cnc(CN4CCCC4)n3C)cc2)c1.Cl [Compound 150, (2S,5S,8S,13S,16R)-16-benzyl-8-(4-chlorobenzyl)-1-(4-ethyl-2-(4-(1-methyl-2-(pyrrolidin-1-ylmethyl)-1H-imidazol-5-yl)phenoxy)benzyl)-5-(methoxymethyl)-2,7,13,14-tetramethyl-1,4,7,11,14-pentaazacyclooctadecane-3,6,10,15,18-pentaone hydrochloride] | 104.13 | 0.8
COC[C@@H]1NC(=O)[C@H](C)N(Cc2ccc(Cl)cc2Oc2ccc(-n3cnc(CN4CC5(COC5)C4)c3C)cc2)C(=O)C[C@@H](Cc2ccccc2)C(=O)N(C)[C@@H](C)CNC(=O)C[C@H](Cc2ccc(Cl)cc2)N(C)C1=O [Compound 112, (2S,5S,8S,13S,16R)-1-(2-(4-(4-(2-oxa-6-azaspiro[3.3]heptan-6-ylmethyl)-5-methyl-1H-imidazol-1-yl)phenoxy)-4-chlorobenzyl)-16-benzyl-8-(4-chlorobenzyl)-5-(methoxymethyl)-2,7,13,14-tetramethyl-1,4,7,11,14-pentaazacyclooctadecane-3,6,10,15,18-pentaone] | 107.46 | 3.2
COC[C@@H]1NC(=O)[C@H](CCC(=O)N2CC3(COC3)C2)N(Cc2ccc(Cl)cc2Oc2ccc(-c3cnc(CN(C)C)n3C)cc2)C(=O)C[C@@H](Cc2ccccc2)C(=O)N(C)[C@@H](C)CNC(=O)C[C@H](Cc2ccc(Cl)cc2)N(C)C1=O [Compound 95, (2S,5S,8S,13S,16R)-16-benzyl-1-(4-chloro-2-(4-(2-((dimethylamino)methyl)-1-methyl-1H-imidazol-5-yl)phenoxy)benzyl)-8-(4-chlorobenzyl)-5-(methoxymethyl)-7,13,14-trimethyl-2-(3-oxo-3-(2-oxa-6-azaspiro[3.3]heptan-6-yl)propyl)-1,4,7,11,14-pentaazacyclooctadecane-3,6,10,15,18-pentaone] | 104.58 | 0.8
COC[C@@H]1NC(=O)[C@H](COC)N(Cc2ccc(Cl)cc2Oc2ccc(-c3cnc(CN(C)C)n3C)cc2)C(=O)C[C@@H](Cc2ccccc2)C(=O)N(C)[C@H]2CCCC[C@@H]2NC(=O)C[C@H](Cc2ccc(Cl)cc2)N(C)C1=O [Compound 234, (4S,7S,10S,14R,16aS,20aS)-14-benzyl-11-(4-chloro-2-(4-(2-((dimethylamino)methyl)-1-methyl-1H-imidazol-5-yl)phenoxy)benzyl)-4-(4-chlorobenzyl)-7,10-bis(methoxymethyl)-5,16-dimethylhexadecahydrobenzo[l][1,4,7,11,14]pentaazacyclooctadecine-2,6,9,12,15(3H)-pentaone] | 100.63 | 0.8
COC[C@@H]1NC(=O)[C@H](CC(F)F)N(Cc2ccc(Cl)cc2Oc2ccc(-c3cnc(CN4CCCC4)n3C)cc2)C(=O)C[C@@H](Cc2ccccc2)C(=O)N(C)[C@@H](C)CNC(=O)C[C@H](Cc2ccc(Cl)cc2)N(C)C1=O [Compound 97, (2S,5S,8S,13S,16R)-16-benzyl-1-(4-chloro-2-(4-(1-methyl-2-(pyrrolidin-1-ylmethyl)-1H-imidazol-5-yl)phenoxy)benzyl)-8-(4-chlorobenzyl)-2-(2,2-difluoroethyl)-5-(methoxymethyl)-7,13,14-trimethyl-1,4,7,11,14-pentaazacyclooctadecane-3,6,10,15,18-pentaone] | 90.83 | 2.2
COC[C@@H]1NC(=O)[C@@H](CCN(C)C)N(Cc2ccc(Cl)cc2Oc2ccc(-c3cnc(CN(C)C)n3C)cc2)C(=O)C[C@@H](Cc2ccccn2)C(=O)N(C)[C@H]2CCCC[C@@H]2NC(=O)C[C@H](Cc2ccc(Cl)cc2)N(C)C1=O [Compound 91, (4S,7S,10R,14R,16aS,20aS)-11-(4-chloro-2-(4-(2-((dimethylamino)methyl)-1-methyl-1H-imidazol-5-yl)phenoxy)benzyl)-4-(4-chlorobenzyl)-10-(2-(dimethylamino)ethyl)-7-(methoxymethyl)-5,16-dimethyl-14-(pyridin-2-ylmethyl)hexadecahydrobenzo[l][1,4,7,11,14]pentaazacyclooctadecine-2,6,9,12,15(3H)-pentaone] | 86.95 | 168
COC[C@@H]1NC(=O)[C@H](C)N(Cc2ccc(Cl)cc2Oc2ccc(-c3ccc(C(=O)NC4CCNCC4)nc3)cc2)C(=O)C[C@@H](Cc2ccccc2)C(=O)N(C)[C@@H](C)CNC(=O)C[C@H](Cc2ccc(Cl)cc2)N(C)C1=O.O=C(O)C(F)(F)F [Compound 122, 5-(4-(2-(((2S,5S,8S,13S,16R)-16-benzyl-8-(4-chlorobenzyl)-5-(methoxymethyl)-2,7,13,14-tetramethyl-3,6,10,15,18-pentaoxo-1,4,7,11,14-pentaazacyclooctadecan-1-yl)methyl)-5-chlorophenoxy)phenyl)-N-(piperidin-4-yl)picolinamide trifluoroacetate] | 55.05 | 8.7
COC[C@@H]1NC(=O)[C@H](C)N(Cc2ccc(Cl)cc2Oc2ccc(-c3cnc(CN(C)C)n3C)cc2)C(=O)C[C@@H](Cc2ccc(F)c(F)c2F)C(=O)N(C)[C@@H](C)CNC(=O)C[C@H](Cc2ccc(Cl)cc2)N(C)C1=O [Compound 33, (2S,5S,8S,13S,16R)-1-(4-chloro-2-(4-(2-((dimethylamino)methyl)-1-methyl-1H-imidazol-5-yl)phenoxy)benzyl)-8-(4-chlorobenzyl)-5-(methoxymethyl)-2,7,13,14-tetramethyl-16-(2,3,4-trifluorobenzyl)-1,4,7,11,14-pentaazacyclooctadecane-3,6,10,15,18-pentaone] | 95.65 | 1.3
COC[C@@H]1NC(=O)[C@H](C)N(Cc2ccc(Cl)cc2Oc2ccc(-c3cnc(CN(C)C)n3C)cc2)C(=O)C[C@@H](Cc2ccccc2)C(=O)N(C)CC(C)(C)NC(=O)C[C@H](Cc2ccc(Cl)cc2)N(C)C1=O [Compound 65, (2S,5S,8S,16R)-16-benzyl-1-(4-chloro-2-(4-(2-((dimethylamino)methyl)-1-methyl-1H-imidazol-5-yl)phenoxy)benzyl)-8-(4-chlorobenzyl)-5-(methoxymethyl)-2,7,12,12,14-pentamethyl-1,4,7,11,14-pentaazacyclooctadecane-3,6,10,15,18-pentaone] | 92.63 | 189
COC[C@@H]1NC(=O)[C@H](CCF)N(Cc2ccc(Cl)cc2Oc2ccc(-c3cnc(CN4CCCC4)n3C)cc2)C(=O)C[C@@H](Cc2ccccc2)C(=O)N(C)[C@@H](C)CNC(=O)C[C@H](Cc2ccc(Cl)cc2)N(C)C1=O [Compound 54, (2S,5S,8S,13S,16R)-16-benzyl-1-(4-chloro-2-(4-(1-methyl-2-(pyrrolidin-1-ylmethyl)-1H-imidazol-5-yl)phenoxy)benzyl)-8-(4-chlorobenzyl)-2-(2-fluoroethyl)-5-(methoxymethyl)-7,13,14-trimethyl-1,4,7,11,14-pentaazacyclooctadecane-3,6,10,15,18-pentaone] | 92.54 | 4.6
COC[C@@H]1NC(=O)[C@H](C)N(Cc2ccc(Cl)cc2Oc2ccc(-c3cnc4n3CCN(C(=O)C3CCOC3)C4)cc2)C(=O)C[C@@H](Cc2ccccc2)C(=O)N(C)[C@@H](C)CNC(=O)C[C@H](Cc2ccc(Cl)cc2)N(C)C1=O (stereo partly drawn) [Compound 133, (2S,5S,8S,13S,16R)-16-benzyl-1-(4-chloro-2-(4-(7-(tetrahydrofuran-3-carbonyl)-5,6,7,8-tetrahydroimidazo[1,2-a]pyrazin-3-yl)phenoxy)benzyl)-8-(4-chlorobenzyl)-5-(methoxymethyl)-2,7,13,14-tetramethyl-1,4,7,11,14-pentaazacyclooctadecane-3,6,10,15,18-pentaone] | 93.15 | 5.8
COC[C@@H]1NC(=O)[C@H](C)N(Cc2ccc(Cl)cc2Oc2ccc(-c3cnc([C@H](C)N(C)C)n3C)cc2)C(=O)C[C@@H](Cc2ccccc2)C(=O)N(C)[C@H]2CCCC[C@@H]2NC(=O)C[C@H](Cc2ccc(Cl)cc2)N(C)C1=O [Compound 241, (4S,7S,10S,14R,16aS,20aS)-14-benzyl-11-(4-chloro-2-(4-(2-((S)-1-(dimethylamino)ethyl)-1-methyl-1H-imidazol-5-yl)phenoxy)benzyl)-4-(4-chlorobenzyl)-7-(methoxymethyl)-5,10,16-trimethylhexadecahydrobenzo[l][1,4,7,11,14]pentaazacyclooctadecine-2,6,9,12,15(3H)-pentaone] | 72.66 | 247
COC[C@@H]1NC(=O)[C@H](C)N(Cc2ccc(Cl)cc2Oc2ccc(-n3cc(CN4CCCC4)nn3)cc2)C(=O)C[C@@H](Cc2ccccc2)C(=O)N(C)[C@@H](C)CNC(=O)C[C@H](Cc2ccc(Cl)cc2)N(C)C1=O [Compound 127, (2S,5S,8S,13S,16R)-16-benzyl-1-(4-chloro-2-(4-(4-(pyrrolidin-1-ylmethyl)-1H-1,2,3-triazol-1-yl)phenoxy)benzyl)-8-(4-chlorobenzyl)-5-(methoxymethyl)-2,7,13,14-tetramethyl-1,4,7,11,14-pentaazacyclooctadecane-3,6,10,15,18-pentaone] | 55.01 | 7.8
COC[C@@H]1NC(=O)[C@H](C)N(Cc2ccc(Cl)cc2Oc2ccc(-n3cnc(CN(C)C)c3C)cc2)C(=O)C[C@@H](Cc2ccccn2)C(=O)N(C)[C@H]2CCCC[C@@H]2NC(=O)C[C@H](Cc2ccc(Cl)cc2)N(C)C1=O [Compound 105, (4S,7S,10S,14R,16aS,20aS)-11-(4-chloro-2-(4-(4-((dimethylamino)methyl)-5-methyl-1H-imidazol-1-yl)phenoxy)benzyl)-4-(4-chlorobenzyl)-7-(methoxymethyl)-5,10,16-trimethyl-14-(pyridin-2-ylmethyl)hexadecahydrobenzo[l][1,4,7,11,14]pentaazacyclooctadecine-2,6,9,12,15(3H)-pentaone] | 104.44 | 1
